Biological target: T1, USP25 (USP25-His6, Boston Biochem E-546) (Homo sapiens, UniProt Q9UHP3)
T1 construct: His6 (C); purchased Boston Biochem E-546
T1 sequence (Q9UHP3 1-1055): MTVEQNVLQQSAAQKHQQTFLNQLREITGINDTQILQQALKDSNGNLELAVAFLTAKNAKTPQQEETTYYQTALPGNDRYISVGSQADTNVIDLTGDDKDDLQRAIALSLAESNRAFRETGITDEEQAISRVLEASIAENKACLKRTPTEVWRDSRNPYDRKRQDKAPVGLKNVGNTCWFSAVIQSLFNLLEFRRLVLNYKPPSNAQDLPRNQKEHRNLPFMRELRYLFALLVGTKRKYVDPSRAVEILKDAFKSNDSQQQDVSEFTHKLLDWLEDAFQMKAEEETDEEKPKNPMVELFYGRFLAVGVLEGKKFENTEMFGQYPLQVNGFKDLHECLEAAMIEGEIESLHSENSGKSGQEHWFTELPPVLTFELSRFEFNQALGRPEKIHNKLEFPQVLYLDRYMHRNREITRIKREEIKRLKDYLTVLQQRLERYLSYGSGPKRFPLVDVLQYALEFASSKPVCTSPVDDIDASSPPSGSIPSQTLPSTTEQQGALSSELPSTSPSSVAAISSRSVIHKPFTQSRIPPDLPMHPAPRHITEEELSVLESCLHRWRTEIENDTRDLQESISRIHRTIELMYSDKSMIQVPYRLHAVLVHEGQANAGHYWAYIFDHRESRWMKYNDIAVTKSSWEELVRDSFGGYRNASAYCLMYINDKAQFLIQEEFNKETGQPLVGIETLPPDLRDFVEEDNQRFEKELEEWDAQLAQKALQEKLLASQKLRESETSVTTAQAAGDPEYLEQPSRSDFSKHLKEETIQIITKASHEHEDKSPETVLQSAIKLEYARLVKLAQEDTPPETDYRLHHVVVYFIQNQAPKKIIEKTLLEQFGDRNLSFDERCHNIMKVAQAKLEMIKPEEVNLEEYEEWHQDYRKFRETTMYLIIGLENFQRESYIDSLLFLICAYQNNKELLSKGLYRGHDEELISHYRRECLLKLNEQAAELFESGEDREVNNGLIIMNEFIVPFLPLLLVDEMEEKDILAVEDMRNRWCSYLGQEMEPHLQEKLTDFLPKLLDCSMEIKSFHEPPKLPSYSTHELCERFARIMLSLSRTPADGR
Assay: Ubiquitin-Rhodamine 110 Assay for USP25 Activity, Example A-3
Assay type: biochemical
Conditions: Ubiquitin-Rhodamine 110 assay, Example A-3; IC50 ranges; read-out: USP25 A-3 IC50
Protocol: Example A-3: Biochemical Assay: Ubiquitin-Rhodamine 110 Assay for USP25 Activity
The assay was performed in a final volume of 9 μL in assay buffer containing 20 mM Tris-HCl (pH 8.0, (1M Tris-HCl, pH 8.0 solution; Corning 46-031-CM)), 3 mM BME (2-Mercaptoethanol; Sigma 63689-25ML-F), 0.03% BGG (0.22 μM filtered, Sigma, G7516-25G), and 0.01% Triton X-100 (Sigma, T9284-10L). Nanoliter quantities of 10-point, 3-fold serial dilution in DMSO was pre-dispensed into 1536 assay plates (Corning, #3724BC) for a final test concentration of 25 μM to 1.3 nM, top to lowest dose, respectively. Enzyme USP25, construct USP25-His6, (Boston Biochem E-546). Concentration and incubation times were optimized for the maximal signal-to-background while maintaining initial velocity conditions at a fixed substrate concentration. The final concentration of the enzyme in the assay was […]. Final substrate (Ub-Rh110; Ubiquitin-Rhodamine 110, R&D Systems #U-555) concentration was 25 nM with [Ub-Rh110]<<Km. 3 μL of 2× enzyme was added to assay plates (pre-stamped with compound) preincubated with […] for 30 minutes and then 3 μL of 2× Ub-Rh110 was added to assay plates. Plates were incubated for 45 minutes at room temperature before addition of 3 μL of stop solution (final concentration of 10 mM citric acid (Sigma, 251275-500G)). Fluorescence was read on the Envision (Excitation at 485 nm and Emission at 535 nm; Perkin Elmer) or on the PheraSTAR (Excitation at 485 nm and Emission at 535 nm; BMG Labtech).
For assay formats Example A-1(a), A-1(b), and A-2, data were reported as percent inhibition compared with control wells based on the following equation: % inh=1−((FLU−AveLow)/(AveHigh−AveLow)) where FLU=measured Fluorescence, AveLow=average Fluorescence of no enzyme control (n=16), and AveHighh=average Fluorescence of DMSO control (n=16). IC50 values were determined by curve fitting of the standard 4 parameter logistic fitting algorithm included in the Activity Base software package: IDBS XE Designer Model 205. Data is fitted using the Levenburg Marquardt algorithm.

SMILES | IC50 [nM]
Cc1ccc2c(N)c(C(=O)N[C@H]3COc4cc(N5CC[C@@H]6CCC(N)C[C@@H]65)ccc4C3)sc2n1 (stereo in doubt) [Example 234, N-[(3R)-7-[(3aS,6S,7aS)-6-amino-octahydro-1H-indol-1-yl]-3,4-dihydro-2H-1-benzopyran-3-yl]-3-amino-6-methylthieno[2,3-b]pyridine-2-carboxamide] | 50 to 200

Same assay, conditions: Ubiquitin-Rhodamine 110 assay, Example A-3; read-out: USP25 A-3 IC50 range

SMILES | IC50 [nM]
CO[C@]12CCN[C@@H]1CN(c1ccc3c(n1)CC[C@H](NC(=O)c1sc4nc(C)ccc4c1N)C3)C2 [Example 435, N-[(6S)-2-[(3aS,6aR)-3a-methoxy-octahydropyrrolo[2,3-c]pyrrol-5-yl]-5,6,7,8-tetrahydroquinolin-6-yl]-3-amino-6-methylthieno[2,3-b]pyridine-2-carboxamide] | 200 to 2000
Cc1ccc2c(N)c(C(=O)N[C@H]3CCc4nc(N5CC6(C[C@@H](N)CO6)C5)ccc4C3)sc2n1 [Example 398, 3-amino-N-[(6S)-2-[(7R)-7-amino-5-oxa-2-azaspiro[3.4]octan-2-yl]-5,6,7,8-tetrahydroquinolin-6-yl]-6-methylthieno[2,3-b]pyridine-2-carboxamide] | 200 to 2000
Cc1ccc2c(N)c(C(=O)N[C@H]3CCc4nc(N5CCN[C@@H](C(F)F)C5)ccc4C3)sc2n1 [Example 375, 3-amino-N-[(6S)-2-[(3R)-3-(difluoromethyl)piperazin-1-yl]-5,6,7,8-tetrahydroquinolin-6-yl]-6-methylthieno[2,3-b]pyridine-2-carboxamide] | > 2000
COC[C@H]1[C@H](N)CCN1c1ccc2c(n1)CC[C@H](NC(=O)c1sc3nc(C)ccc3c1N)C2 [Example 419, 3-amino-N-[(6S)-2-[(2R,3R)-3-amino-2-(methoxymethyl)pyrrolidin-1-yl]-5,6,7,8-tetrahydroquinolin-6-yl]-6-methylthieno[2,3-b]pyridine-2-carboxamide] | > 2000
Cc1ccc2c(N)c(C(=O)N[C@H]3CCc4nc(N5C[C@H]6COC[C@@]6(N)C5)ccc4C3)sc2n1 [Example 395, N-[(6S)-2-[(3aS,6aR)-3a-amino-hexahydro-1H-furo[3,4-c]pyrrol-5-yl]-5,6,7,8-tetrahydroquinolin-6-yl]-3-amino-6-methylthieno[2,3-b]pyridine-2-carboxamide] | 200 to 2000
Cc1ccc2c(N)c(C(=O)N[C@H]3CCc4nc(N5C[C@@H](N)[C@@]6(CCOC6)C5)ccc4C3)sc2n1 (single isomer, unassigned) [Example 431] | > 2000
CO[C@]1(C)CN(c2ccc3c(n2)CC[C@H](NC(=O)c2sc4nc(C)ccc4c2N)C3)C[C@@H]1N [Example 427, 3-amino-N-[(6S)-2-[(3R,4S)-4-amino-3-methoxy-3-methylpyrrolidin-1-yl]-5,6,7,8-tetrahydroquinolin-6-yl]-6-methylthieno[2,3-b]pyridine-2-carboxamide] | 200 to 2000
Cc1ccc2c(N)c(C(=O)N[C@H]3CCc4nc(N5CC[C@@](N)(CO)C5)ccc4C3)sc2n1 [Example 387, 3-amino-N-[(6S)-2-[(3S)-3-amino-3-(hydroxymethyl)pyrrolidin-1-yl]-5,6,7,8-tetrahydroquinolin-6-yl]-6-methylthieno[2,3-b]pyridine-2-carboxamide] | > 2000
Cc1ccc2c(N)c(C(=O)N[C@H]3CCc4nc(N5CC6(C[C@H](N)CO6)C5)ccc4C3)sc2n1 [Example 399, 3-amino-N-[(6S)-2-[(7S)-7-amino-5-oxa-2-azaspiro[3.4]octan-2-yl]-5,6,7,8-tetrahydroquinolin-6-yl]-6-methylthieno[2,3-b]pyridine-2-carboxamide] | 200 to 2000
CCn1ccc2cc(C(=O)N[C@H]3CCc4nc(N5C[C@@H](N)[C@H](C(F)(F)F)C5)ccc4C3)cnc21 [Example 422, N-[(6S)-2-[(3S,4R)-3-amino-4-(trifluoromethyl)pyrrolidin-1-yl]-5,6,7,8-tetrahydroquinolin-6-yl]-1-ethyl-1H-pyrrolo[2,3-b]pyridine-5-carboxamide] | > 2000
Cc1ccc2c(N)c(C(=O)N[C@H]3CCc4nc(N5C[C@@H](N)[C@H](C(F)F)C5)ncc4C3)sc2n1 [Example 381, 3-amino-N-[(6S)-2-[(3S,4R)-3-amino-4-(difluoromethyl)pyrrolidin-1-yl]-5,6,7,8-tetrahydroquinazolin-6-yl]-6-methylthieno[2,3-b]pyridine-2-carboxamide] | > 2000
CCn1ccc2cc(C(=O)N[C@H]3CCc4nc(N5C[C@H](N)[C@@H](C(F)(F)F)C5)ccc4C3)cnc21 [Example 421, N-[(6S)-2-[(3R,4S)-3-amino-4-(trifluoromethyl)pyrrolidin-1-yl]-5,6,7,8-tetrahydroquinolin-6-yl]-1-ethyl-1H-pyrrolo[2,3-b]pyridine-5-carboxamide] | 200 to 2000
Cc1ccc2c(N)c(C(=O)N[C@H]3CCc4nc(N5C[C@@H]6COC[C@]6(N)C5)ccc4C3)sc2n1 [Example 394, N-[(6S)-2-[(3aR,6aS)-3a-amino-hexahydro-1H-furo[3,4-c]pyrrol-5-yl]-5,6,7,8-tetrahydroquinolin-6-yl]-3-amino-6-methylthieno[2,3-b]pyridine-2-carboxamide] | > 2000
Cc1ccc2c(N)c(C(=O)N[C@H]3CCc4nc(N5CC[C@]6(C5)OCC[C@@H]6N)ccc4C3)sc2n1 [Example 406, 3-amino-N-[(6S)-2-[(4S,5R)-4-amino-1-oxa-7-azaspiro[4.4]nonan-7-yl]-5,6,7,8-tetrahydroquinolin-6-yl]-6-methylthieno[2,3-b]pyridine-2-carboxamide] | > 2000
CO[C@@]12CCN[C@H]1CN(c1ccc3c(n1)CC[C@H](NC(=O)c1sc4nc(C)ccc4c1N)C3)C2 [Example 434, N-[(6S)-2-[(3aR,6aS)-3a-methoxy-octahydropyrrolo[2,3-c]pyrrol-5-yl]-5,6,7,8-tetrahydroquinolin-6-yl]-3-amino-6-methylthieno[2,3-b]pyridine-2-carboxamide] | > 2000
COC[C@]1(N)CCN(c2ccc3c(n2)CC[C@H](NC(=O)c2sc4nc(C)ccc4c2N)C3)C1 [Example 389, 3-amino-N-[(6S)-2-[(3S)-3-amino-3-(methoxymethyl)pyrrolidin-1-yl]-5,6,7,8-tetrahydroquinolin-6-yl]-6-methylthieno[2,3-b]pyridine-2-carboxamide] | 200 to 2000
CO[C@@]1(C)CN(c2ccc3c(n2)CC[C@H](NC(=O)c2sc4nc(C)ccc4c2N)C3)C[C@H]1N [Example 428, 3-amino-N-[(6S)-2-[(3S,4R)-4-amino-3-methoxy-3-methylpyrrolidin-1-yl]-5,6,7,8-tetrahydroquinolin-6-yl]-6-methylthieno[2,3-b]pyridine-2-carboxamide] | 200 to 2000
Cc1ccc2c(N)c(C(=O)N[C@H]3CCc4nc(N5CCN[C@H](C(F)F)C5)ccc4C3)sc2n1 [Example 374, 3-amino-N-[(6S)-2-[(3S)-3-(difluoromethyl)piperazin-1-yl]-5,6,7,8-tetrahydroquinolin-6-yl]-6-methylthieno[2,3-b]pyridine-2-carboxamide] | > 2000

From US12162888B2, “Carboxamides as ubiquitin-specific protease inhibitors” (Valo Early Discovery, Inc., priority 2018, dated 2024)
